For series [1] the following is noted: powder and solution form.
The next series addresses SARS-CoV-2 spike RBD, WT (Severe acute respiratory syndrome coronavirus 2, UniProt P0DTC2). Description: biochemical.
The target in series [2] is SARS-CoV-2 spike ectodomain trimer with the BA.2-type RBD (SARS-CoV-2) (UniProt P0DTC2). Briefly: cryo-EM structure.
Series [3] concerns the target SARS-CoV-2 spike ectodomain trimer with the BA.5-type RBD (SARS-CoV-2) (UniProt P0DTC2). Briefly: cryo-EM structure.

No end group written: not given here.

“DKLWILQKIYEIMVRLDEEGHGEASLMVSDLIYEFMKRD [CeSPIACE]”: the stability entry in series [1] was “stability has been confirmed in powder and solution form”. The dissociation constant Kd – broadly, a measure of binding affinity in units of concentration – at SARS-CoV-2 spike RBD, WT worked out at 246 ± 2 pM.

For the substance “SARS-CoV-2 spike ectodomain trimer with the BA.2-type RBD (from UniProt P0DTC2 13-1208) (domain or fragment)”, the stoichiometry N – broadly, the number of molecules, sites or subunits per partner or assembly – in series [2] amounted to 3.

In the case of “SARS-CoV-2 spike ectodomain trimer with the BA.5-type RBD (from UniProt P0DTC2 13-1208) (domain or fragment)”, in series [3], the stoichiometry N stood at 3.

For the origin of these results see publication PMC11789008 (Proceedings of the National Academy of Sciences of the …, 2025).
